# Measurements published in patent US20220054494A1, “METHODS FOR TREATING BLADDER AND URETHRA DYSFUNCTION AND DISEASE” (University of Pittsburgh - Of the Commonwealth System of …, priority 2019, published 2022).
# “Also recorded” adds a separate entry of the source.
# What was measured:
# Format in all cases: in vivo, rat
# [1] = tested on: nitrotyrosine; experiment: Western immunoblotting, nitrotyrosine; settings: aged rats; oral 8-AG 5 mg/kg/day, 6 weeks
# Description: Western immunoblotting: One half of each bladder preparation was homogenized using Lysing Matrix D in a FastPrep 24 instrument (MP Biomedicals, Solon, Ohio) in HBSS (5 mM KCl, 0.3 mM KH2PO4, 138 mM NaCl, 4 mM NaHO3, 0.3 mM Na2HCO3, 0.3 mM Na2HPO4, 5.6 mM glucose and 10 mM Hepes, pH 7.4) containing complete protease inhibitor cocktail (1 tablet/10 ml, ROCHE®, Indianapolis, Ind.)) and phosphatase inhibitor cocktail (SIGMA®, 1:100). After centrifugation (13000 rpm; 15 min at 4° C.), the membrane protein fraction was prepared by suspending the membrane pellets in lysis buffer containing 0.3 M NaCl, 50 mM Tris-HCl (pH 7.6) and 0.5% Triton X-100 and the same concentration of protease inhibitors as above. The suspensions were incubated on ice and centrifuged (13000 rpm; 15 min at 4° C.). The protein concentrations of the combined supernatants were determined using the PIERCE® BCA protein assay (THERMO SCIENTIFIC®, Rockford, Ill.). […] As a loading control, total protein per sample was determined using Bio-Rad® Stain Free SDS-PAGE gel technology. UV-activated protein fluorescence was imaged on a CHEMIDOC® MP (BIO-RAD®). […] The volume (intensity) of each protein species was determined and normalized to total protein using Image Lab software (BIO-RAD®).
# [2] = tested on: bladder blood flow; experiment: Laser Doppler flowmeter bladder blood flow, aged rats; settings: oral 8-AG 5 mg/kg/day, 6 weeks, compared with young rats
# Source text: Vascular Changes: Bladders that had been perfused transcardially with PBS buffer containing 20 nm yellow-green fluorescent beads (THERMO FISHER®, F8787) to highlight the vasculature were fixed then cleared by removing lipids and dissolving light-absorbing chromophores within the tissue. Volumetric data were acquired using a Caliber ID RS-G4 ribbon scanning confocal microscope (NIKON® Inc, Tokyo, Japan), which can acquire large-area images (uses a high nA (1.0) long working distance (8 mm) with low magnification (20×)). This affords the advantage of interrogating whole tissues in a three-dimensional environment without the need to section. Real-time blood perfusion (1 mm3 tissue) was accomplished using a BLF22D laser Doppler flowmeter (Transonic Systems, Inc) with a surface probe (TypeS-APLPHS) applied to the serosal surface of the bladder (apex and neck) wall using Doppler light shift from moving RBCs to analyze flow by the Bonner algorithm. This method gives robust, non-invasive microvascular flow signals in the bladder wall of anesthetized rats.
# [3] = tested on: AVP receptor V2; experiment: Western immunoblotting, kidney V2 vasopressin receptor; settings: aged Fisher 344 rats; 8-AG 5 mg kg/day via drinking water, 1 month
# Description: Western immunoblotting and transmission electron microscopy: Following these testing paradigms, rats were deeply anesthetized, bladders were removed, and one half of each bladder (using the smooth muscle layer) was homogenized using Lysing Matrix D in a FASTPREP-24™ instrument (MP BIOMEDICALS™, Solon, Ohio) in HBSS (5 mM KCl, 0.3 mM KH2PO4, 138 mM NaCl, 4 mM NaHO3, 0.3 mM Na2HCO3, 0.3 mM Na2HPO4, 5.6 mM glucose and 10 mM Hepes, pH 7.4) containing complete protease inhibitor cocktail (1 tablet/10 ml, ROCHE™, Indianapolis, Ind.) and phosphatase inhibitor cocktail (SIGMA®, 1:100). Whole rat kidney was also homogenized using the same procedure. After centrifugation (13000 rpm; 15 min at 4° C.), the membrane protein fraction was prepared by suspending the membrane pellets in lysis buffer containing 0.3 M NaCl, 50 mM Tris-HCl (pH 7.6), 0.5% Triton X-100, and the same concentration of protease inhibitors as above. […] The protein concentrations of the combined supernatants were determined using the PIERCE™ BCA protein assay (THERMO SCIENTIFIC™, Rockford, Ill.). […] As a loading control, total protein per sample was determined using BIO-RAD™ Stain Free SDS-PAGE gel technology. UV-activated protein fluorescence was imaged on a CHEMIDOC™ MP (BIO-RAD™). […] The volume (intensity) of each protein species was determined and normalized to total protein using Image Lab software (BIO-RAD™).
compound,measurement,setting,value
"Nc1nc2[nH]c(N)nc2c(=O)[nH]1 [8-AG, 8-Aminoguanine]",urethral nitrotyrosine,[1],normalized to a younger state
same,bladder blood flow (Doppler flowmeter),[2],no significant difference; also recorded: reversed to a younger state
same,V2 vasopressin receptor in kidney,[3],restored to a younger state; also recorded: restored to levels similar to the younger state
